Laboratory results from paper PMC9964336, “Neosuberitenone, a New Sesterterpenoid Carbon Skeleton; New Suberitenones; and Bioactivity against Respiratory Syncytial Virus, from the Antarctic Sponge Suberites sp” (Marine Drugs, 2023).
Like-named read-outs stand apart in the source and are kept apart here.

Key:
[1] = test system: panel of tumor cell lines; settings: cited from earlier work
RSV = RSV antiviral assay (Renilla luciferase reporter virus rA2-Rluc in A549 cells); format: cell-based, respiratory syncytial virus; settings: for Selectivity Index: Selectivity index = CC50/IC50; for IC50 / EC50: human respiratory syncytial virus; for EC50: A549, read-out: EC50 against RSV (Table S12)
Method: A549 (CCL-185, ATCC) cells were seeded at 1.6 × 10^4 cells in 100 μL of 5% FBS/1X penicillin–streptomycin/F12 medium per well in 96-well µClear® black plates with a clear bottom (Greiner 655090). The cells were infected with 400 PFU/well of a recombinant RSV encoding Renilla luciferase as an additional transcription unit (rA2-Rluc) in a total volume of 50 µL/well and allowed to adsorb for 1 h. Purified compounds were serially diluted two-fold in triplicate and 50 µL/well of the diluted extracts were added to the infected cells. After further incubation at 37 °C and 5% CO2 for 24 h, the supernatants were removed and cells were lysed using Renilla lysis buffer (Promega). Luciferase activity was measured with the Renilla Luciferase reagent (Promega) and BioTek Synergy Mx microplate luminometer using Gen5 version 2.00.18 software. The RSV antiviral effect for the test samples was determined by normalizing to the DMSO-treated control samples and multiplying by 100 to obtain the percent of control. Statistical analysis was performed using GraphPad Prism software version 9.4.1.

[2] = Cytotoxicity assay (MTT) in uninfected A549 cells; format: cell-based; settings: human, means ± SEM of triplicate samples
Method: To test for cell viability, duplicate 96-well plates of uninfected A549 cells were set up in parallel with the RSV antiviral assay. Extracts were diluted and used to treat cells as described above for the RSV antiviral assay. The negative control for cytotoxicity was 2% DMSO while the positive was 2 μM (final concentration) of PDKI inhibitor. After the 24 h incubation period, the cells were processed for an MTT Proliferation Assay (Provost and […] Research) according to the manufacturer's protocol. Absorbance at 570 nm was measured by a microplate luminometer and standardized to control as above. Two percent DMSO and 2 μM PDK1 inhibitor (CalBioChem) were used as negative and positive controls for cell death, respectively. Statistical analysis was performed using GraphPad Prism software version 9.4.1.

ESKAPE pathogens = experiment: Antibacterial screen; format: cell-based
Candida strains = experiment: Antifungal screen; format: cell-based; settings: several Candida strains
[3] = Stability in solution (NMR / reversed-phase HPLC observation); format: physicochemical; settings: CDCl3, NMR solvent
Method: While NMR data were collected on purified suberitenone I (6), the signals decreased in intensity while those of a new species grew in intensity. […] Thus, suberitenone J (7) is the oxaspiro-ring-opened isomer, existing in equilibrium with 6. When the two were separated by reversed-phase HPLC, both reverted to an equilibrium mixture of ~3:1 6:7 over 24 h.

HIV gene expression = test system: HIV gene expression; parameters: method as in PMID 27768313; settings: cited from earlier work
MRSA = test system: MRSA; parameters: method as in doi:10.1021/jo00128a034, PMID 15104501, doi:10.1016/j.tetlet.2004.04.091, doi:10.1016/j.tetlet.2018.07.055; settings: cited from earlier work
[4] = A549, 24 h, read-out: IC50 (RSV antiviral)
[5] = A549, read-out: IC50 (RSV antiviral, text)

Molecule	Selectivity Index (RSV)	IC50 (RSV; [4]) [µM]	EC50 (RSV) [µM]	CC50 at 24 h [2] [µM]	other results
19-episuberitenone B	–	–	–	–	cytotoxicity against a panel of tumor cell lines [1]: weak cytotoxicity
CC(=O)OC1CC2(C)CC(O)(C3CC(=O)C(C)=CC3O)CCC2C2(C)CCCC(C)(C)C12 (stereo not drawn) [Compound 11, suberitenone B]	21.1	3.2 ± 0.4	3.5	67.6 ± 16.3	activity against RSV (in words) (RSV): active; IC50 (RSV; [5]): 3.5 µM; antibacterial activity (ESKAPE pathogens): inactive; antifungal activity (Candida strains): inactive
CC(=O)OC1CC2(C)C(O)C(C3CC(=O)C(C)=CC3O)=CCC2C2(C)CCCC(C)(C)C12 (stereo not drawn) [Compound 3, Suberitenone F]	3.7	9.8 ± 1.4	9.8	36 ± 5.3	activity against RSV (in words) (RSV): active; antibacterial activity (ESKAPE pathogens): inactive; antifungal activity (Candida strains): inactive
CC(=O)OC1CC2(C)C(CCC3(C4CC(=O)C(C)=CC4O)OC23)C2(C)CCCC(C)(C)C12 (stereo not drawn) [Compound 2, Suberitenone E]	4.3	20.5 ± 0.7	20.5	87.3 ± 38.1	–
CC(=O)O[C@@H]1C[C@@]2(C)C(=O)C([C@H]3CC(=O)C(C)=C[C@H]3O)=CCC2[C@@]2(C)CCCC(C)(C)C12 (stereo partly drawn) [Compound 4, Suberitenone G]	3.7	11 ± 1.3	11	40.7 ± 8.3	stability in CDCl3 [3]: decomposition was observed
anvilone A	–	–	–	–	HIV gene expression (HIV gene expression): turned on HIV gene expression
oxaspirosuberitenone	–	–	–	–	antibacterial activity against MRSA (MRSA): mild antibacterial activity
CC(=O)OC1CC2(C)C=C3C4CC(=O)C(C)(CC4O)C3CC2C2(C)CCCC(C)(C)C12 (stereo not drawn) [Compound 1, Neosuberitenone A]	–	–	> 50	–	viral inhibitory effects (RSV; at 25 µg/mL): did not show any viral inhibitory effects
CC(=O)OC1CC2(C)C=C(C3CC(=O)C(C)=CC3O)CCC2C2(C)CCCC(C)(C)C12 (stereo not drawn) [Compound 10, suberitenone A]	4.3	7.8 ± 0.2	7.9	33.3 ± 1.3	activity against RSV (in words) (RSV): active; IC50 (RSV; [5]): 7.9 µM; antibacterial activity (ESKAPE pathogens): inactive; antifungal activity (Candida strains): inactive
isosuberitenone B	–	–	–	–	cytotoxicity against a panel of tumor cell lines [1]: weak cytotoxicity
COC1C(C)C(=O)CC(C2(O)CCC3C(C)(CC(OC(C)=O)C4C(C)(C)CCCC43C)C2)C1O (stereo not drawn) [Compound 5, Suberitenone H]	4.7	10.9 ± 1.8	10.9	51.1 ± 17.5	–
